This passage reports IC50 and solubility results from patent US20230295152A1 (SENDA BIOSCIENCES, INC., priority 2019, published 2023).

For orientation: IC50 means the concentration that inhibits the measured activity by half. Usually solubility stands for the dissolved amount per volume that the medium holds.

The target of one data set is T1, AHR (Homo sapiens, UniProt P35869).
T1 construct: other cell line with a DRE-luciferase reporter stably transfected; endogenous in cells; host or cells: HepG2 AhR-Lucia reporter cells
T1 sequence (P35869 11-848): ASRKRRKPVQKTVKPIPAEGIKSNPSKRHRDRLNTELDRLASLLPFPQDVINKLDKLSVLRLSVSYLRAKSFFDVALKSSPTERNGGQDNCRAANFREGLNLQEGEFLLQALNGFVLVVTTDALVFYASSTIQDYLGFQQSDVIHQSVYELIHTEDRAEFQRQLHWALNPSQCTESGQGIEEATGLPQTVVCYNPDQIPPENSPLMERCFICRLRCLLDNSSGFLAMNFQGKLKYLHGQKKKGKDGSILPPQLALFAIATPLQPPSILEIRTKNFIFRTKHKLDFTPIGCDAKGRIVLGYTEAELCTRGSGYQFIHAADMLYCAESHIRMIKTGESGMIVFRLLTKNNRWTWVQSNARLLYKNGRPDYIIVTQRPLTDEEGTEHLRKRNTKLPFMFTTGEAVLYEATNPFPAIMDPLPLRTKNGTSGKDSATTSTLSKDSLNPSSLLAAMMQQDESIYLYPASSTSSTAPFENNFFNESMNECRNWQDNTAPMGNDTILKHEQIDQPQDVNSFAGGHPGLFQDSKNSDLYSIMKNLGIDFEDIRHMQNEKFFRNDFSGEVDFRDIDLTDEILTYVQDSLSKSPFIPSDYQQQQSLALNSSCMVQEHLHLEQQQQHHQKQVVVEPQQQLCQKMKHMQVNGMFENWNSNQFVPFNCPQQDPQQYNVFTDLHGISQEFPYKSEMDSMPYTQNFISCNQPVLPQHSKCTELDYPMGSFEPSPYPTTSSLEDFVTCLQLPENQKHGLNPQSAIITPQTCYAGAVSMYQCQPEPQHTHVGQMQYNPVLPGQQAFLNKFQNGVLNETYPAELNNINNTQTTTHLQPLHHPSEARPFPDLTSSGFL
As to the kind of experiment: DRE-Luciferase Reporter Assay, HepG2 AhR-Lucia reporter cells. The data set is classed as cell-based. The following applies: with AHR activating ligand at EC50, read-out: HepG2-Luc IC50. An outline of the steps: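 Antagonism read as inhibition of agonist-driven secreted luciferase in stably DRE-reporter-transfected cells such as HepG2 AhR-Lucia. Agonist ligand at EC50 concentration added 1 hr post-plating alongside antagonist (log series, top 100 uM); supernatant read at 24 or 48 h, IC50 derived against agonist-only maximum.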
Background: A reporter such as luciferase makes a cellular process visible.

Data set [1] in a line: Solubility Determination Assay in PBS pH 1.6 and pH 7.4. Conditions: PBS buffer, aqueous buffer, kinetic from dmso stock. In kind it is physicochemical. As to the method:
The stock solutions of test compounds and control compound progesterone were prepared in DMSO at the concentrations of 10 mM. 15 μL of stock solution (10 mM) of each sample was placed in order into their proper 96-well rack. 485 μL of PBS pH 1.6 and pH 7.4 were added into each vial of the cap-less Solubility Sample plate. The assay was performed in singlet. One stir stick was added to each vial and then the vial was sealed using a molded PTFE/Silicone plug. […] After completion of the 2 hours, plugs were removed and the stir sticks were removed using a big magnet. The samples from the Solubility Sample plate were transferred into the filter plate. Using the Vacuum Manifold, all the samples were filtered. An aliquot of 5 μL was taken from the filtrate followed by addition of 495 μL of a mixture of H2O and acetonitrile containing internal standard (1:1). A certain proportion of ultrapure water was used to dilute the diluent according to the peak shape. The dilution factor was changed according to the solubility values and the LC-MS signal response.
From the 10 mM DMSO STD plate, 6 μL was transferred into the remaining empty plate, and then 194 μL of DMSO were added to that plate to have a STD concentration of 300 μM. From the 300 μM DMSO STD plate, 5 μL were transferred into the remaining empty plate, and then 495 μL of a mixture of H2O and acetonitrile containing internal standard (1:1) were added to that plate to have a final STD concentration of 3 μM. A certain proportion of ultrapure water was used to dilute the diluent according to the peak shape. The concentrations of the standard samples were changed according to the LC-MS signal response.
The plate was placed into the well plate autosampler. The samples were evaluated by LC-MS/MS analysis.
All calculations were carried out using Microsoft Excel.
The filtrate was analyzed and quantified against a standard of known concentration using LC coupled with mass spectral peak identification and quantitation. Solubility values of the test compound and control compound were calculated as follows: […]
Any value of the compounds that was not within the specified limits was rejected and the experiment was repeated.
“+++” indicates a solubility value equal to or greater than 1 μM, “++” indicates a solubility value between 0.1 and 1 μM, and “+” indicates a solubility value less than 0.1 μM.

[2] abbreviates: PBS pH 1.6, 25° C., read-out: Aq. Solubility at pH = 1.6.
The mark [3] stands for this setting: PBS pH 7.4, 25° C., read-out: Aq. Solubility at pH = 7.4.

≈ marks a conversion by molar mass, not a printed value. Read-outs that look alike come from different tables or passages of the source.

`O=c1c2cc(-c3ccc(Cl)cc3)nc(-c3cccnc3)c2ncn1C[C@@H](O)C(F)(F)F` (single isomer, unassigned) [185 enantiomer 1]: the IC50 on AHR is under 100 nM. For the same compound, the solubility at 2 h in data set [1] (setting [2]) was at least 1 µM; in data set [1] (setting [3]) it was 0.1 to 1 µM (≈ 0.0447 to 0.447 µg/mL).
Take `O=c1c2cc(-c3ccc(Cl)cc3)nc(-c3cccnc3)c2ncn1C[C@H](O)C(F)(F)F` (single isomer, unassigned) [185 enantiomer 2]: the IC50 on AHR was under 100 nM. In addition, the solubility at 2 h in data set [1] (setting [2]) was at least 1 µM; in data set [1] (setting [3]), 0.1 to 1 µM (≈ 0.0447 to 0.447 µg/mL).
Regarding `O=c1c2cc(-c3ccc(Cl)cc3)nc(-c3cccnc3)c2ncn1[C@@H]1COC[C@@H]1O` (stereo in doubt) [Compound 71], at AHR, the IC50 was under 100 nM. In addition, the solubility at 2 h in data set [1] (setting [2]) and in data set [1] (setting [3]) was at least 1 µM throughout.
Consider `C[C@@H](CO)n1cnc2c(-c3cncc(F)c3)nc(-c3ccc(OC(F)(F)F)cc3)cc2c1=O` [Compound 1, (S)-8-(5-fluoropyridin-3-yl)-3-(1-hydroxypropan-2-yl)-6-(4-(trifluoromethoxy)phenyl)pyrido[3,4-d]pyrimidin-4(3H)-one], for which the concentration for half-maximal inhibition (IC50) on AHR was under 100 nM. Further, the solubility at 2 h in data set [1] (setting [3]) was in the range of 0.1 to 1 µM (≈ 0.046 to 0.46 µg/mL).
Regarding `C[C@@H](CO)n1cnc2c(-c3cccc(F)c3)nc(-c3ccc(Cl)cc3)cc2c1=O` [Compound 7], the IC50 at AHR is under 100 nM. Also, the values for the solubility at 2 h in data set [1] (setting [2]) and in data set [1] (setting [3]) were 0.1 to 1 µM (≈ 0.041 to 0.41 µg/mL) and under 0.1 µM, respectively.
For `C[C@@H](CO)n1cnc2c(-c3cccc(F)c3)nc(-c3ccc(C(F)(F)F)nc3)cc2c1=O` [Compound 8], at AHR, the IC50 is under 100 nM. Further, the solubility at 2 h in data set [1] (setting [3]) is at least 1 µM.
Regarding `CC(C)(O)Cn1cnc2c(-c3cccnc3)nc(-c3ccc(C(F)(F)F)nc3)cc2c1=O` [Compound 9], at AHR, the IC50 was under 100 nM. For the same compound, the solubility at 2 h in data set [1] (setting [2]) and in data set [1] (setting [3]) was at least 1 µM each time.
Consider `C[C@@H](CO)n1cnc2c(-c3cccnc3)nc(-c3ccc(C(F)(F)F)nc3)cc2c1=O` [Compound 12], for which the IC50 at AHR was under 100 nM. Also, the solubility at 2 h in data set [1] (setting [2]) and in data set [1] (setting [3]) was at least 1 µM in each case.
As to `CC(C)(O)Cn1cnc2c(-c3cccnc3)nc(-c3ccc(C(F)(F)F)cc3)cc2c1=O` [Compound 16], at AHR, the IC50 is under 100 nM. Moreover, the solubility at 2 h in data set [1] (setting [2]) and in data set [1] (setting [3]) was at least 1 µM in each case.
For the compound `Cc1ccc(-c2cc3c(=O)n([C@@H](C)CO)cnc3c(-c3cccnc3)n2)cc1` [Compound 17, (S)-3-(1-hydroxypropan-2-yl)-8-(pyridin-3-yl)-6-(p-tolyl)pyrido[3,4-d]pyrimidin-4(3H)-one], the IC50 on AHR is under 100 nM. In addition, the solubility at 2 h in data set [1] (setting [2]) and in data set [1] (setting [3]) was at least 1 µM throughout.
For the compound `CC(C)(O)Cn1cnc2c(-c3cccnc3)nc(-c3ccc(Cl)cc3)cc2c1=O` [Compound 18], the IC50 at AHR is under 100 nM. For the same compound, the solubility at 2 h in data set [1] (setting [2]) and in data set [1] (setting [3]) was at least 1 µM in each case.
`Cn1cc(-c2nc(-c3ccc(Cl)cc3)cc3c(=O)n(CC(C)(C)O)cnc23)cn1` [Compound 21]: the IC50 at AHR is under 100 nM. Besides, the solubility at 2 h in data set [1] (setting [2]) and in data set [1] (setting [3]) was at least 1 µM in each case.
Consider `C[C@@H](CO)n1cnc2c(-c3cccnc3)nc(-c3ccc(OC(F)(F)F)cc3)cc2c1=O` [Compound 22], for which the IC50 on AHR was under 100 nM. Further, the solubility at 2 h in data set [1] (setting [2]) and in data set [1] (setting [3]) was at least 1 µM each time.
On to `C[C@@H](CO)n1cnc2c(-c3cccnc3)nc(-c3ccc(C(F)(F)F)cc3)cc2c1=O` [Compound 23], for which the IC50 on AHR is under 100 nM. Also, the solubility at 2 h in data set [1] (setting [2]) and in data set [1] (setting [3]) was at least 1 µM throughout.
On to `C[C@@H](CO)n1cnc2c(-c3cnn(C)c3)nc(-c3ccc(OC(F)(F)F)cc3)cc2c1=O` [Compound 25], for which, on AHR, the IC50 is under 100 nM. The solubility at 2 h in data set [1] (setting [2]) was 0.1 to 1 µM (≈ 0.0445 to 0.445 µg/mL); in data set [1] (setting [3]), under 0.1 µM.
For `C[C@@H](CO)n1cnc2c(-c3cnn(C)c3)nc(-c3ccc(Cl)cc3)cc2c1=O` [Compound 27], the IC50 at AHR was under 100 nM. The solubility at 2 h in data set [1] (setting [2]) and in data set [1] (setting [3]) was 0.1 to 1 µM (≈ 0.0396 to 0.396 µg/mL) throughout.
Regarding `C[C@H](n1cnc2c(-c3cnn(C)c3)nc(-c3ccc(Cl)cc3)cc2c1=O)C(C)(C)O` [Compound 30], the IC50 at AHR was under 100 nM. Also, in data set [1] (setting [3]), the solubility at 2 h was in the range of 0.1 to 1 µM (≈ 0.0424 to 0.424 µg/mL).
In the same order, the values of `C[C@@H](n1cnc2c(-c3cnn(C)c3)nc(-c3ccc(Cl)cc3)cc2c1=O)C(C)(C)O` [Compound 31] are under 100 nM and 0.1 to 1 µM (≈ 0.0424 to 0.424 µg/mL).
Take `C[C@@H](n1cnc2c(-c3cccnc3)nc(-c3ccc(Cl)cc3)cc2c1=O)C(C)(C)O` [Compound 33]: the IC50 on AHR is under 100 nM. Besides, in data set [1] (setting [3]), the solubility at 2 h is under 0.1 µM.
With `C[C@H](n1cnc2c(-c3cccnc3)nc(-c3cccnc3)cc2c1=O)C(C)(C)O` [Compound 34], the IC50 at AHR is under 100 nM. For the same compound, the solubility at 2 h in data set [1] (setting [2]) and in data set [1] (setting [3]) was at least 1 µM each time.
In the case of `C[C@@H](CO)n1cnc2c(-n3ccnc3)nc(-c3ccc(OC(F)(F)F)cc3)cc2c1=O` [Compound 44, (S)-3-(1-hydroxypropan-2-yl)-8-(1H-imidazol-1-yl)-6-(4-(trifluoromethoxy)-phenyl)pyrido[3,4-d]pyrimidin-4(3H)-one], at AHR, the IC50 is under 100 nM. The solubility at 2 h in data set [1] (setting [3]) was in the range of 0.1 to 1 µM (≈ 0.0431 to 0.431 µg/mL).
Take `C[C@@H](CO)n1cnc2c(-c3cccnc3)nc(-c3ccc(C(F)(F)F)cn3)cc2c1=O` [Compound 46, (S)-3-(1-hydroxypropan-2-yl)-8-(pyridin-3-yl)-6-(5-(trifluoromethyl)pyridin-2-yl)pyrido[3,4-d]pyrimidin-4(3H)-one]: the IC50 at AHR is under 100 nM. Besides, the solubility at 2 h in data set [1] (setting [2]) and in data set [1] (setting [3]) was at least 1 µM in each case.
As for `C[C@@H](CO)n1cnc2c(-c3cccc(F)c3)nc(-c3ccc(C(F)(F)F)cn3)cc2c1=O` [Compound 47, (S)-8-(3-fluorophenyl)-3-(1-hydroxypropan-2-yl)-6-(5-(trifluoromethyl)pyridin-2-yl)pyrido[3,4-d]pyrimidin-4(3H)-one], the IC50 on AHR was under 100 nM. The solubility at 2 h in data set [1] (setting [3]) lay within 0.1 to 1 µM (≈ 0.0444 to 0.444 µg/mL).
As for `C[C@@H](CO)n1cnc2c(-c3cccnc3)nc(-c3ccc(OC(F)(F)F)nc3)cc2c1=O` [Compound 50], the IC50 at AHR was under 100 nM. Further, the solubility at 2 h in data set [1] (setting [2]) and in data set [1] (setting [3]) was at least 1 µM in each case.
`CC(C)(O)Cn1cnc2c(-c3cn[nH]c3)nc(-c3ccc(C(F)(F)F)nc3)cc2c1=O` [Compound 51]: the IC50 on AHR was under 100 nM. The solubility at 2 h in data set [1] (setting [2]) and in data set [1] (setting [3]) was 0.1 to 1 µM (≈ 0.043 to 0.43 µg/mL) throughout.
Regarding `CC(C)(O)Cn1cnc2c(-c3cnsc3)nc(-c3ccc(C(F)(F)F)nc3)cc2c1=O` [Compound 54], the 50% inhibitory concentration (IC50) on AHR was under 100 nM. The solubility at 2 h in data set [1] (setting [2]) and in data set [1] (setting [3]) was at least 1 µM in each case.
`C[C@@H](CO)n1cnc2c(-c3cnsc3)nc(-c3ccc(C(F)(F)F)nc3)cc2c1=O` [Compound 55]: the IC50 at AHR was under 100 nM. Moreover, the solubility at 2 h in data set [1] (setting [2]) and in data set [1] (setting [3]) was at least 1 µM in each case.
